From patent US10463644B2, “Uses of sesquiterpene lactone compounds and their derivatives in drugs preparation” (ACCENDATECH, priority 2013, dated 2019)
Like-named read-outs stand apart in the source and are kept apart here.

What was measured:
[1] = system: TNF-α secreted by synoviocyte; assay: Content of TNF-α in culture supernatant of synoviocyte of RA model rats given test compound; type: in vivo; conditions: rat RA model, dose 30 mg/kg.2d; normal control 0.38 ± 0.027, NaCl 0.74 ± 0.098
Outline: (§1)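 Rat RA model: compounds given at 30 mg/kg.2d, with normal control and NaCl groups. Synoviocyte culture supernatants assayed for secreted TNF-α and PGE2 by one referenced method, IL-1β by another.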

[2] = system: IL-1β secreted by synoviocyte; assay: Content of IL-1β in culture supernatant of synoviocyte of RA model rats given test compound; type: in vivo; conditions: rat RA model, dose 30 mg/kg.2d; normal control 0.16 ± 0.034, NaCl 0.49 ± 0.136
Outline: as §1

[3] = system: cancer stem cells; assay: Survival rate of cancer stem cells after test compound is added (flow cytometry, Annexin V-FITC/PI, clinical specimen); type: cell-based, patient; conditions: Homo sapiens, 18 h
Text: (§2) Take fresh or cryopreserved clinical specimen (acute myelogenous leukemia (AML, marker is CD34^+/CD38^+), chronic myelogenous leukemia (CML, Ph+/CD34+/CXCR4+), chronic lymphocytic leukemia (CLL,CD133+/CD19−/CD38−), skin cancer (CD34+), breast cancer (CD44+/CD24−/ESA+), ovarian cancer (CD44+/CD117+), brain tumor (CD133+) prostate cancer (CD44+/CD24−), head-neck squamous cell carcinoma (CD44+), laryngeal cancer (CD133+), pancreatic cancer (ESA+/CD44+/CD24+), retinoblastoma (ABCG2/ALDH1), Children hepatoblastoma (CD34+/THY1+/c-kit+), liver cancer (CD133+), malignant melanoma (CD133+), colorectal cancer (EpCAM^high/CD44+), colon adenocarcinoma (CD44^high), glioma (ABCG-2/BCRP1), gastrointestinal tumor (ABCG-2/BCRP1), nasopharynx cancer (ABCG2), brain glioma (Dlk-1/Pref-1), gastric cancer (CD45+), lung adenocarcinoma (Sca-1/CD45-/Pecam-/CD34+), lung cancer (CD133+CD34+CD44+)) of patient. Take the acute myelogenous leukemia as the example, conduct density gradient centrifugation with Ficoll and take out the middle mononuclear cells, re-suspend it with serum-free IMDM after centrifuged. Adjust the concentration of cells into 1×10^6/mL and lay 24-well plate with 1 mL in each well, and then treat 18 hours with the compound to select with corresponding concentration. Collect the cells and centrifuge them at 1500 rps for 8 minutes, re-suspend the precipitation with […], mark the antibodies related to leukemia stem cell, avoid light to incubate 30 minutes at room temperature and then centrifuge it at 1500 rps, then wash away the unbound antibody CD34^+CD38^+. Re-suspend it with 100 μl 1× Binding Buffer and add respectively 5 μl Annexin V-FITC and PI, then avoid light to incubate 15 minutes before add 200 μl 1× Binding Buffer, then use flow cytometry to examine the marked apoptosis within one hour.

[4] = system: cancer cells; assay: Survival rate of cancer cells after test compound is added (flow cytometry, Annexin V-FITC/PI, clinical specimen); type: cell-based, patient; conditions: Homo sapiens, 18 h, read-out: Survival rate (%) All cells (Stem cells and ordinary cells)
Text: as §2

[5] = system: normal cells; assay: Survival rate of normal cells after test compound is added (flow cytometry, Annexin V-FITC/PI); type: cell-based; conditions: 18 h
Text: as §2

[6] = Head and neck squamous cell carcinomas
[7] = read-out: Survival rate (%) All cells (Stem cells and ordinary cells)
[8] = read-out: Survival rate (%) Stem cells

In the case of `C=C1C(=O)O[C@H]2[C@H]1CC[C@]1(C)O[C@@]13CC[C@@](C)(O)[C@H]23` [Compound 24], the “Content of TNF-α in culture supernatant of synoviocyte (x ± s)” value [1] is reported as 0.54 ± 0.057 ng/mL, the “Content of IL-1β in culture supernatant of synoviocyte (x ± s)” value [2] is reported as 0.37 ± 0.051 ng/mL and the viability at 10 µM ([3]; AML) is reported as 48%. For the same molecule, the viability at 20 µM ([3]; AML) was 39%, the viability at 10 µM ([3]; Brain glioma) was 52% and the viability at 20 µM ([3]; Brain glioma) was 42%. For the same molecule, the viability at 10 µM ([3]; Brain tumor) was 66%, the viability at 20 µM ([3]; Brain tumor) was 54% and the viability at 10 µM ([3]; Breast cancer) was 54%. It also gave a viability at 20 µM ([3]; Breast cancer) of 47%, a viability at 10 µM ([3]; CLL) of 48% and a viability at 20 µM ([3]; CLL) of 39%. For the same molecule, the viability at 10 µM ([3]; CML) was 51%, the viability at 20 µM ([3]; CML) was 46% and the viability at 10 µM ([3]; Children hepatoblastoma) was 67%. For the same molecule, the viability at 20 µM ([3]; Children hepatoblastoma) was 57%, the viability at 10 µM ([3]; Colon adenocarcinoma) was 58% and the viability at 20 µM ([3]; Colon adenocarcinoma) was 49%. It also gave a viability at 10 µM ([3]; Colorectal cancer) of 66%, a viability at 20 µM ([3]; Colorectal cancer) of 55% and a viability at 10 µM ([3]; Gastric cancer) of 51%. For the same molecule, the viability at 20 µM ([3]; Gastric cancer) was 39%, the viability at 10 µM ([3]; Gastrointestinal tumor) was 56% and the viability at 20 µM ([3]; Gastrointestinal tumor) was 51%. The viability at 10 µM ([3]; Glioma) was 69%, the viability at 20 µM ([3]; Glioma) was 60% and the viability at 10 µM [3, 6] was 64%. The viability at 20 µM [3, 6] was 57%, the viability at 10 µM ([3]; Laryngeal cancer) was 65% and the viability at 20 µM ([3]; Laryngeal cancer) was 55%. It also gave a viability at 10 µM ([3]; Liver cancer) of 74%, a viability at 20 µM ([3]; Liver cancer) of 61% and a viability at 10 µM ([3]; Lung adenocarcinoma) of 68%. It also gave a viability at 20 µM ([3]; Lung adenocarcinoma) of 55%, a viability at 10 µM ([3]; Lung cancer) of 61% and a viability at 20 µM ([3]; Lung cancer) of 54%. The viability at 10 µM ([3]; Malignant melanoma) was 81%, the viability at 20 µM ([3]; Malignant melanoma) was 76% and the viability at 10 µM ([3]; Nasopharynx cancer) was 57%. It also gave a viability at 20 µM ([3]; Nasopharynx cancer) of 48%, a viability at 10 µM ([3]; Ovarian cancer) of 57% and a viability at 20 µM ([3]; Ovarian cancer) of 45%. It also gave a viability at 10 µM ([3]; Pancreatic cancer) of 55%, a viability at 20 µM ([3]; Pancreatic cancer) of 49% and a viability at 10 µM ([3]; Prostate cancer) of 61%. The viability at 20 µM ([3]; Prostate cancer) was 51%, the viability at 10 µM ([3]; Retinoblastoma) was 62% and the viability at 20 µM ([3]; Retinoblastoma) was 54%. The viability at 10 µM ([3]; Skin cancer) was 46%, the viability at 20 µM ([3]; Skin cancer) was 39% and the viability at 10 µM ([4]; AML) was 59%. It also gave a viability at 20 µM ([4]; AML) of 48%, a viability at 10 µM ([4]; Brain glioma) of 65% and a viability at 20 µM ([4]; Brain glioma) of 53%. The viability at 10 µM ([4]; Brain tumor) was 74%, the viability at 20 µM ([4]; Brain tumor) was 69% and the viability at 10 µM ([4]; Breast cancer) was 77%. It also gave a viability at 20 µM ([4]; Breast cancer) of 58%, a viability at 10 µM ([4]; CLL) of 67% and a viability at 20 µM ([4]; CLL) of 48%. It also gave a viability at 10 µM ([4]; CML) of 69%, a viability at 20 µM ([4]; CML) of 51% and a viability at 10 µM ([4]; Children hepatoblastoma) of 75%. It also gave a viability at 20 µM ([4]; Children hepatoblastoma) of 68%, a viability at 10 µM ([4]; Colon adenocarcinoma) of 66% and a viability at 20 µM ([4]; Colon adenocarcinoma) of 57%. For the same molecule, the viability at 10 µM ([4]; Colorectal cancer) was 78%, the viability at 20 µM ([4]; Colorectal cancer) was 67% and the viability at 10 µM ([4]; Gastric cancer) was 66%. The viability at 20 µM ([4]; Gastric cancer) was 48%, the viability at 10 µM ([4]; Gastrointestinal tumor) was 72% and the viability at 20 µM ([4]; Gastrointestinal tumor) was 62%. It also gave a viability at 10 µM ([4]; Glioma) of 78%, a viability at 20 µM ([4]; Glioma) of 74% and a viability at 10 µM [4, 6] of 76%. It also gave a viability at 20 µM [4, 6] of 68%, a viability at 10 µM ([4]; Laryngeal cancer) of 75% and a viability at 20 µM ([4]; Laryngeal cancer) of 66%. The viability at 10 µM ([4]; Liver cancer) was 82%, the viability at 20 µM ([4]; Liver cancer) was 72% and the viability at 10 µM ([4]; Lung adenocarcinoma) was 78%. For the same molecule, the viability at 20 µM ([4]; Lung adenocarcinoma) was 64%, the viability at 10 µM ([4]; Lung cancer) was 72% and the viability at 20 µM ([4]; Lung cancer) was 66%. The viability at 10 µM ([4]; Malignant melanoma) was 88%, the viability at 20 µM ([4]; Malignant melanoma) was 86% and the viability at 10 µM ([4]; Nasopharynx cancer) was 64%. The viability at 20 µM ([4]; Nasopharynx cancer) was 59%, the viability at 10 µM ([4]; Ovarian cancer) was 68% and the viability at 20 µM ([4]; Ovarian cancer) was 61%. It also gave a viability at 10 µM ([4]; Pancreatic cancer) of 68%, a viability at 20 µM ([4]; Pancreatic cancer) of 62% and a viability at 10 µM ([4]; Prostate cancer) of 75%. For the same molecule, the viability at 20 µM ([4]; Prostate cancer) was 62%, the viability at 10 µM ([4]; Retinoblastoma) was 82% and the viability at 20 µM ([4]; Retinoblastoma) was 69%. For the same molecule, the viability at 10 µM ([4]; Skin cancer) was 62%, the viability at 20 µM ([4]; Skin cancer) was 47% and the viability at 10 µM [5, 7] was 93%. The viability at 10 µM [5, 8] was 92%, the viability at 20 µM [5, 7] was 92% and the viability at 20 µM [5, 8] was 90%.
